Measured values reported in ChEMBL document CHEMBL1240494, “Radiosynthesis and in vivo evaluation of [(11)C]MC80 for P-glycoprotein imaging” (Bioorg Med Chem, 2010).

Columns and labels:
[1] = test system: Heart; test: Biodistribution in FVB mouse heart at 4.5 MBq, iv after 1 min postinjection; format: ADME, organism-based; settings: in vivo
[2] = test system: Liver; test: Biodistribution in FVB mouse liver at 4.5 MBq, iv; format: ADME, organism-based; settings: in vivo
[3] = test system: Blood; test: Biodistribution in FVB mouse blood at 4.5 MBq, iv after 1 min postinjection; format: ADME, organism-based; settings: in vivo
[4] = test system: Kidney; test: Biodistribution in mdr1a deficient mouse kidney at 4.5 MBq, iv after 60 mins postinjection; format: ADME, organism-based; settings: in vivo, 1 h
[5] = test system: Liver; test: Biodistribution in FVB mouse liver at 4.5 MBq, iv after 60 mins postinjection pretreated with cyclosporin A; format: ADME, organism-based; settings: in vivo, 1 h
[6] = Ratio of drug uptake in brain to blood in FVB mouse at 18.5 MBq, iv after 90 mins postinjection; format: ADME, organism-based; settings: 1.5 h
[7] = Biodistribution in FVB mouse small intestine at 4.5 MBq, iv after 1 min postinjection; format: ADME, organism-based; settings: in vivo
[8] = test system: Liver; test: Biodistribution in mdr1a deficient mouse liver at 4.5 MBq, iv after 60 mins postinjection; format: ADME, organism-based; settings: in vivo, 1 h
[9] = test system: Kidney; test: Biodistribution in FVB mouse kidney at 4.5 MBq, iv after 60 mins postinjection pretreated with cyclosporin A; format: ADME, organism-based; settings: in vivo, 1 h
[10] = test system: Lung; test: Biodistribution in mdr1a deficient mouse lung at 4.5 MBq, iv after 1 min postinjection; format: ADME, organism-based; settings: in vivo
[11] = Biodistribution in FVB mouse testes at 4.5 MBq, iv after 60 mins postinjection pretreated with cyclosporin A; format: ADME, organism-based, Testis; settings: in vivo, 1 h
[12] = test system: Heart; test: Biodistribution in mdr1a deficient mouse heart at 4.5 MBq, iv after 60 mins postinjection; format: ADME, organism-based; settings: in vivo, 1 h
[13] = test system: Brain; test: Biodistribution in FVB mouse brain at 4.5 MBq, iv after 1 min postinjection; format: ADME, organism-based; settings: in vivo
[14] = test system: Brain; test: Biodistribution in mdr1a deficient mouse brain at 4.5 MBq, iv after 60 mins postinjection; format: ADME, organism-based; settings: in vivo, 1 h
[15] = test system: Lung; test: Biodistribution in FVB mouse lung at 4.5 MBq, iv after 1 min postinjection; format: ADME, organism-based; settings: in vivo
[16] = Biodistribution in FVB mouse small intestine at 4.5 MBq, iv after 90 mins postinjection; format: ADME, organism-based; settings: in vivo, 1.5 h
[17] = Biodistribution in FVB mouse large intestine at 4.5 MBq, iv after 1 min postinjection; format: ADME, organism-based; settings: in vivo
[18] = Ratio of drug uptake in brain to blood in FVB mouse at 18.5 MBq, iv after 30 mins postinjection pretreated with cyclosporin A; format: ADME, organism-based; settings: 0.5 h
[19] = test system: Brain; test: Biodistribution in FVB mouse brain at 4.5 MBq, iv after 90 mins postinjection; format: ADME, organism-based; settings: in vivo, 1.5 h
[20] = Ratio of drug uptake in brain to blood in FVB mouse at 18.5 MBq, iv after 30 mins postinjection; format: ADME, organism-based; settings: 0.5 h
[21] = test system: Spleen; test: Biodistribution in FVB mouse spleen at 4.5 MBq, iv after 60 mins postinjection pretreated with cyclosporin A; format: ADME, organism-based; settings: in vivo, 1 h
[22] = Ratio of drug uptake in brain to blood in FVB mouse at 18.5 MBq, iv after 1 min postinjection pretreated with cyclosporin A; format: ADME, organism-based
[23] = Partition coefficient, log D of the compound; format: physicochemical; settings: octanol/water
[24] = Ratio of drug uptake in testes to blood in FVB mouse at 18.5 MBq, iv after 30 mins postinjection; format: ADME, organism-based; settings: in vivo, 0.5 h
[25] = Biodistribution in FVB mouse large intestine at 4.5 MBq, iv after 90 mins postinjection; format: ADME, organism-based; settings: in vivo, 1.5 h
[26] = test system: Pancreas; test: Biodistribution in FVB mouse pancreas at 4.5 MBq, iv after 60 mins postinjection pretreated with cyclosporin A; format: ADME, organism-based; settings: in vivo, 1 h

Structure (SMILES): COc1cc2c(cc1OC)CN(Cc1ccc3cc(O[11CH3])ccc3c1)CC2
- Drug uptake [1]: 10.69 % ID/g
- Drug uptake [2]: 8.71 % ID/g
- Drug uptake [3]: 2.56 % ID/g
- Drug uptake [4]: 2.46 % ID/g
- Drug uptake [5]: 4.86 % ID/g
- Ratio [6]: 1.05
- Drug uptake [7]: 3.89 % ID/g
- Drug uptake [8]: 4.86 % ID/g
- Drug uptake [9]: 2.46 % ID/g
- Drug uptake [10]: 31.35 % ID/g
- Drug uptake [11]: 2.56 % ID/g
- Drug uptake [12]: 10.69 % ID/g
- Drug uptake [13]: 7.66 % ID/g
- Drug uptake [14]: 1.09 % ID/g
- Drug uptake [15]: 31.35 % ID/g
- Drug uptake [16]: 11.78 % ID/g
- Drug uptake [17]: 1.83 % ID/g
- Ratio [18]: 1.5
- Drug uptake [19]: 0.9 % ID/g
- Ratio [20]: 2.17
- Drug uptake [21]: 1.52 % ID/g
- Ratio [22]: 2.91
- logD [23]: 1.96
- Ratio [24]: 3.04
- Drug uptake [25]: 2.18 % ID/g
- Drug uptake [26]: 6.85 % ID/g
